What was measured:
Ntrk2 mRNA = test: RT–qPCR of Ntrk2 mRNA in cortical neurons; conditions: after LSD treatment
Bdnf mRNA = test: RT–qPCR of Bdnf mRNA in cortical neurons; conditions: for Bdnf mRNA, group mean (5f): LSD 100 nM
[1] = tested on: dentate granule cells (DGCs); test: Long-term survival of newborn dentate granule cells (BrdU); type: in vivo, mouse; conditions: for Mean, figure 7b (survival of newborn dentate granule cells): LSD group; for e6h group mean: LSD
Experimental: WT and Y433F^+/− male mice were administered four doses of 5-bromo-2′-deoxyuridine (BrdU, 75 mg kg^−1 per injection, every 2 h) intraperitoneally to tag newborn neurons in the hippocampus and returned to their home cage. […] Four weeks later, animals were intracardially perfused with PBS followed by 4% PFA. Brains were dissected and postfixed with 4% PFA (overnight, 4 °C). Next, brains were transferred to 30% sucrose (0.1% PBS) solution and stored at 4 °C for 48–72 h. Brains were moved into disposable vinyl specimen molds (Sakura, Tissue-Tek Cryomold standard) and covered in Tissue-Tek O.C.T. Compound (Sakura). Trays were placed on dry ice and brains covered once more in TissueTec to ensure full coverage. Once frozen, samples were stored at −80 °C. Brains were sliced coronally at 40 µm thickness, collecting every sixth slice. Slices were stored in cryoprotectant fluid (30% sucrose, 30% ethylene glycol, 1% PVP-40, and 0.05 M PB) in −20 °C until staining. Every third hippocampal slice containing dentate gyrus (DG) was collected for washing with 0.1 M PBS and staining. BrdU immunofluorescence was conducted similarly as previously reported in the literature[28] with modifications. Hippocampal slices were incubated in 2.0 M HCl (30 min, 37 °C) and washed with PBS. Slices were then incubated in 0.1 M borate buffer (pH 8.0) at room temperature for 10 min, followed by further washes in PBS and 1 h incubation in 0.1% PBS blocking buffer (0.5% Triton X-100, 5% normal donkey serum, 5% normal goat serum, 1% BSA and 0.1% gelatin). Sections were incubated with primary antibodies rat anti-BrdU (Abcam, ab6326; 1:200) and mouse anti-NeuN (Millipore, MAB377; 1:1,000) for 48 h at 4 °C with gentle shaking. Slices were then washed with PBS, followed by incubation with secondary antibodies Alexa Fluor 488 donkey anti-rat (Invitrogen, A21208; 1:300) and Alexa Fluor 568 goat-anti-mouse (Invitrogen, A11004; 1:500) for 2 h at room temperature and protected from light. Slices were washed in PBS and PB before mounting with Dako fluorescence mounting medium (Agilent, S302380-2) and slides stored at 4 °C until imaging. A total of eight slices containing both hemispheres and covering the whole DG (every third slice) were imaged with a Zeiss LSM 710 confocal microscope. Fifteen optical sections with a Z-step of 2 µm were acquired per slice with a PlanApochromat 10×/0.45 M27. BrdU^+ and BrdU^+/NeuN^+ cells in the DG were counted manually by experimenters blinded to treatment and genotype using ZEN Blue 3.2. Similarly to Ma et al.[28], we estimated the number of mature neurons (BrdU^+/NeuN^+) in the DG of both hemispheres by multiplying by 6 the total count derived from every third hippocampal slice. The percentage of mature neurons over total BrdU^+ cells in the DG was also calculated.

BDNF protein = BDNF protein ELISA in cortical neurons; type: cell-based, rat; conditions: for BDNF protein, group mean (5g): LSD 100 nM, vehicle 100
Experimental: To determine BDNF protein concentrations, ELISA was run as previously described[83] with minor modifications. […] Samples were diluted in Hanks buffer (125 mM NaCl, 5 mM KCl, 1.2 mM NaH2PO4, 1 mM CaCl2, 1.2 mM MgCl2, 1 μM ZnCl2, 10 mM glucose, 25 mM HEPES and 0.25% BSA, pH 7.4). Samples and BDNF standards (10–1,000 pg ml^−1, Peprotech) were acidified at room temperature to pH 3 by adding 1 M HCl and neutralized to pH 7 after 15 min with 1 M NaOH. A Maxisorb Nunc ELISA plate (Thermo Scientific) previously coated with a primary BDNF antibody (1:1,000 in carbonate buffer, overnight, 4 °C) and blocked (2% BSA and 0.1% Triton X-100 in Hanks buffer, 2 h, room temperature). Then, 170 µl of samples and standards were added to the plate with 30 µl of the secondary POD-conjugated BDNF antibody (1:1,000 in 6.66% BSA and 0.66% Triton X-100 in Hanks buffer). The BDNF antibodies were received from Roche and have been previously described. After incubating overnight at 4 °C the plate was washed with PBS-T. BM Blue POD substrate (Roche, 54827-17-1) was added to each well, and the colorimetric reaction was stopped after 20 min by adding 50 µl of 1 M H2SO4. Absorbance was measured at […] with a plate reader (Varioskan Flash, Thermo Scientific).

[2] = tested on: TrkB cell surface retention; test: Cell surface retention of TrkB in cortical neurons; type: cell-based, rat
Experimental: The cell surface retention of TrkB was measured as previously described[11],[82]. […] For antagonist experiments, cultures were pretreated with M100907 (100 nM) for 10 min and remained present for the rest of the experiment. After washing with PBS and incubating for 1 h with blocking buffer (5% nonfat dry milk and 5% BSA) at room temperature, plates were incubated with goat anti-TrkB antibody (R&D Systems, AF1494; 1:1,000, overnight, 4 °C). After further PBS washes, plates were incubated with HRP-conjugated […] antibody (Bio-Rad, 170–5046; 1:5,000, 1 h, room temperature). Finally, wells were washed with PBS and the chemiluminescent signal was read after brief incubation with Pierce ECL substrate (Thermo Fisher Scientific, 32106).

CCN(CC)C(=O)C1C=C2c3cccc4[nH]cc(c34)CC2N(C)C1 (stereo not drawn) [LSD, lysergic acid diethylamide]
Ntrk2 mRNA levels (Ntrk2 mRNA): without any changes in Ntrk2 mRNA levels | Bdnf mRNA, group mean (5f) (Bdnf mRNA; 1 h, fold change, 1 h vehicle 1): 2.028 | Bdnf mRNA, group mean (5f) (Bdnf mRNA; 24 h): 0.7739 | Bdnf mRNA, group mean (5f) (Bdnf mRNA; 72 h): 0.7626 | Bdnf mRNA (Bdnf mRNA; after LSD treatment): upregulated at 1 h | Bdnf mRNA, predicted (LS) mean over timepoints (5f) (Bdnf mRNA; vehicle 1.015): 1.188 | number of surviving DGCs ([1]; WT mice, 4 weeks after single administration (0.1 mg kg^−1 i.p.)): doubles the number of surviving DGCs | Mean, figure 7b (survival of newborn dentate granule cells) ([1]; WT mice): 315.4 | e6h group mean ([1]; WT mice, n=7): 94.67 | Mean Diff., figure 7b, WT:Saline vs. WT:LSD ([1]; WT mice, saline minus LSD, Bonferroni's multiple comparisons test): -197.8 | e6h Mean Diff. (Saline minus LSD) ([1]; WT:Saline vs. WT:LSD, Bonferroni's multiple comparisons test): -4.385 | Mean, figure 7b (survival of newborn dentate granule cells) ([1]; Y433F+/- mice): 150 | e6h group mean ([1]; Y433F+/- mice, n=8): 94.59 | Mean Diff., figure 7b, Y433F+/-:Saline vs. Y433F+/-:LSD ([1]; Y433F+/- mice, saline minus LSD, Bonferroni's multiple comparisons test): 9.6 | e6h Mean Diff. (Saline minus LSD) ([1]; Y433F+/-:Saline vs. Y433F+/-:LSD, Bonferroni's multiple comparisons test): 3.141 | e6h Predicted (LS) mean of LSD ([1]; column mean across WT and Y433F+/- mice): 94.63 | Predicted (LS) mean of LSD, figure 7b ([1]; mean over WT and Y433F+/- mice): 232.7 | Difference between predicted means (Saline - LSD), figure 7b ([1]; means over WT and Y433F+/- mice): -94.11 | BDNF protein, group mean (5g) (BDNF protein; 5 min): 101.1 | BDNF protein, group mean (5g) (BDNF protein; 1 h): 105.6 | BDNF protein, group mean (5g) (BDNF protein; 24 h): 146.4 | BDNF protein, group mean (5g) (BDNF protein; 72 h): 104.8 | BDNF protein levels (BDNF protein; after LSD treatment): elevated at 24 h | TrkB cell surface retention [2]: increases TrkB cell surface retention independently of 5-HT2A activation

Source: publication PMC10244169, “Psychedelics promote plasticity by directly binding to BDNF receptor TrkB” (Nature Neuroscience, 2023)
